Assay results: US10174007B2, “Substituted 3-azabicyclo[3.1.0]hexanes as ketohexokinase inhibitors” (Pfizer Inc., priority 2015, dated 2019)
Where two headings read alike, the source gives them in different places.

Target: KHK-C (Homo sapiens (Human), UniProt P50053)
Experiment: Assay A: coupled-enzyme KHK absorbance assay, 10 nM KHK-C
[1] = read-out: IC50 (nM) Assay A 10 nM KHK-C, 10 nM KHK-C, 0.8 mM fructose, 0.2 mM ATP, avg of (#) runs
[2] = read-out: IC50 (nM) Assay A (Table 4), 10 nM KHK-C, 0.8 mM fructose, 0.2 mM ATP, avg of (#) runs

Sequence of KHK-C (P50053 whole entry): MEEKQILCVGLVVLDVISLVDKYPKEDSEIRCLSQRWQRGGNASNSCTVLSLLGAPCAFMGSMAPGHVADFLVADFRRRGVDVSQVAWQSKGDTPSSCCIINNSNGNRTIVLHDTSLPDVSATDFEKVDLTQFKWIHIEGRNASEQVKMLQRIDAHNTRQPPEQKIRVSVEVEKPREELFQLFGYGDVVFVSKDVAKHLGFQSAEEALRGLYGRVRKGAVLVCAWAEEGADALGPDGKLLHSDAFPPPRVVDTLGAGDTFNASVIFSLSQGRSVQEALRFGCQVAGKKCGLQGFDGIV
Text: A screening assay was developed for KHK involving a coupled enzyme system which used the product of the KHK reaction to drive an absorbance signal in kinetic mode. KHK takes fructose and ATP and converts it to F1P and ADP. ADP then serves as substrate to pyruvate kinase which converts PEP to pyruvate which is then reduced to lactate by lactate dehydrogenase with the concomitant oxidation of NADH to NAD+. The resulting depletion of NADH was monitored by measuring absorbance at 340 nm.
Recombinant human KHK-C and KHK-A were expressed in E. coli as a His-tagged fusion protein and purified using Ni-NTA chromatography.
Compounds were prepared in DMSO as 4 mM stocks, diluted using an 11-point half-log scheme on a Biomek FX (Beckman Coulter), and incubated at rt for 30 minutes with the reaction mixture containing 50 mM HEPES, pH 7.4, 140 mM KCl, 3.5 mM MgCl2, 0.8 mM fructose, 2 mM TCEP, 0.8 mM PEP, 0.7 mM NADH, 0.01% Triton X-100, 30 U/mL pyruvate kinase-lactate dehydrogenase, and 10 nM purified KHK-C. The compound concentration in each well ranged from 1 nM to 100 μM. The reaction was initiated with the addition of 0.2 mM ATP. The absorbance was measured for 30 minutes on a SpectraMax reader (Molecular Devices) after ATP was added. The concentrations provided are based on the final mixture volume of 40 μL (referred to as the final concentration).
Controls: N8-(cyclopropylmethyl)-N4-(2-(methylthio)phenyl)-2-(piperazin-1-yl)pyrimido[5,4-d]pyrimidine-4,8-diamine at 2 μM final concentration was used as high percent effect (HPE) control, and 2.5% DMSO which was present in all reaction wells was used as zero percent effect (ZPE) control. Reaction rates were obtained for 300-1800 seconds time window in units of 1000*AU/min (absorbance unit per minute), and average values for ZPE and HPE controls from 16 wells each were calculated, AveZPE and AveHPE, respectively.
Percent inhibition (% inhibition) was calculated for each well using this equation:
For each compound tested, the IC50 provided is the average based on at least two separate assays conducted on separate days.

SMILES | IC50 [2] | further results
COC(=O)C[C@@H]1[C@H]2CN(c3cc(C(F)(F)F)nc(N4CC[C@@H]4C)n3)C[C@@H]12 [Example 3, Methyl [(1R,5S,6R)-3-{2-[(2S)-2-methylazetidin-1-yl]-6-(trifluoromethyl)pyrimidin-4-yl}-3-azabicyclo[3.1.0]hex-6-yl]acetate] |  | IC50: 3510 nM
O=C(O)C[C@@H]1[C@H]2CN(c3cc(C(F)(F)F)nc(C4CCC4)n3)C[C@@H]12 [Example 6, {(1R,5S,6s)-3-[2-cyclobutyl-6-(trifluoromethyl)pyrimidin-4-yl]-3-azabicyclo[3.1.0]hex-6-yl}acetic acid] |  | IC50 [1]: 170 nM
C[C@H]1[C@H](O)CN1c1nc(N2C[C@@H]3[C@@H](CC(=O)O)[C@@H]3C2)c(C2CC2)c(C(F)(F)F)n1 [Example 7, [(1R,5S,6R)-3-{5-cyclopropyl-2-[(2S,3R)-3-hydroxy-2-methylazetidin-1-yl]-6-(trifluoromethyl)pyrimidin-4-yl}-3-azabicyclo[3.1.0]hex-6-yl]acetic acid] |  | IC50 [1]: 111 nM
CCc1c(N2C[C@@H]3[C@@H](CC(=O)O)[C@@H]3C2)nc(N2C[C@@H](O)[C@@H]2C)nc1C(F)(F)F [Example 8, [(1R,5S,6R)-3-{5-ethyl-2-[(2S,3R)-3-hydroxy-2-methylazetidin-1-yl]-6-(trifluoromethyl)pyrimidin-4-yl}-3-azabicyclo[3.1.0]hex-6-yl]acetic acid] |  | IC50 [1]: 53.8 nM
C[C@@H]1N(c2nc(N3C[C@@H]4[C@H](C3)[C@H]4CS(C)(=O)=O)cc(C(F)(F)F)n2)C[C@@]1(C)O [Example 9, (2S,3R)-2,3-dimethyl-1-[4-{(1R,5S,6s)-6-[(methylsulfonyl)methyl]-3-azabicyclo[3.1.0]hex-3-yl}-6-(trifluoromethyl)pyrimidin-2-yl]azetidin-3-ol] |  | IC50: 14400 nM
C[C@H]1CCN1c1nc(N2C[C@@H]3[C@@H](CC(=O)NS(C)(=O)=O)[C@@H]3C2)cc(C(F)(F)F)n1 [Example 10, 2-[(1R,5S,6R)-3-{2-[(2S)-2-methylazetidin-1-yl]-6-(trifluoromethyl)pyrimidin-4-yl}-3-azabicyclo[3.1.0]hex-6-yl]-N-(methylsulfonyl)acetamide] |  | IC50 [1]: 682 nM
C[C@H]1CCN1c1nc(N2C[C@@H]3[C@@H](Cc4nnn[nH]4)[C@@H]3C2)cc(C(F)(F)F)n1 [Example 11, (1R,5S,6R)-3-{2-[(2S)-2-methylazetidin-1-yl]-6-(trifluoromethyl)pyrimidin-4-yl}-6-(1H-tetrazol-5-ylmethyl)-3-azabicyclo[3.1.0]hexane] |  | IC50 [1]: 866 nM
C[C@H]1[C@H](O)CN1c1cc(N2C[C@@H]3[C@@H](CC(=O)O)[C@@H]3C2)c(Cl)c(C(C)(F)F)n1 [Example 12, [(1R,5S,6R)-3-{3-chloro-2-(1,1-difluoroethyl)-6-[(2S,3R)-3-hydroxy-2-methylazetidin-1-yl]pyridin-4-yl}-3-azabicyclo[3.1.0]hex-6-yl]acetic acid] |  | IC50 [1]: 289 nM
COc1c(N2C[C@@H]3[C@@H](CC(=O)O)[C@@H]3C2)nc(N2C[C@@H](O)[C@@H]2C)nc1C(F)(F)F [Example 13, [(1R,5S,6R)-3-{2-[(2S,3R)-3-hydroxy-2-methylazetidin-1-yl]-5-methoxy-6-(trifluoromethyl)pyrimidin-4-yl}-3-azabicyclo[3.1.0]hex-6-yl]acetic acid] |  | IC50 [1]: 33.9 nM
C[C@H]1[C@H](O)CN1c1nc(C(F)F)cc(N2C[C@@H]3[C@@H](CC(=O)O)[C@@H]3C2)n1 [Example 14, [(1R,5S,6R)-3-{6-(difluoromethyl)-2-[(2S,3R)-3-hydroxy-2-methylazetidin-1-yl]pyrimidin-4-yl}-3-azabicyclo[3.1.0]hex-6-yl]acetic acid] | 152 nM | 
C[C@H]1[C@H](O)CN1c1nc(C(F)F)c(Cl)c(N2C[C@@H]3[C@@H](CC(=O)O)[C@@H]3C2)n1 [Example 15, [(1R,5S,6R)-3-{5-chloro-6-(difluoromethyl)-2-[(2S,3R)-3-hydroxy-2-methylazetidin-1-yl]pyrimidin-4-yl}-3-azabicyclo[3.1.0]hex-6-yl]acetic acid] | 19.1 nM | 
C[C@H]1[C@H](O)CN1c1nc(N2C[C@@H]3[C@@H](CC(=O)O)[C@@H]3C2)c(Cl)c(C(F)(F)F)n1 [Example 16, [(1R,5S,6R)-3-{5-chloro-2-[(2S,3R)-3-hydroxy-2-methylazetidin-1-yl]-6-(trifluoromethyl)pyrimidin-4-yl}-3-azabicyclo[3.1.0]hex-6-yl]acetic acid] | 6.4 nM | 
C[C@H]1[C@H](O)CN1c1nc(N2C[C@@H]3[C@@H](CC(=O)O)[C@@H]3C2)c(Cl)c(C(C)(F)F)n1 [Example 18, [(1R,5S,6R)-3-{5-chloro-6-(1,1-difluoroethyl)-2-[(2S,3R)-3-hydroxy-2-methylazetidin-1-yl]pyrimidin-4-yl}-3-azabicyclo[3.1.0]hex-6-yl]acetic acid] | 16.7 nM | 
C[C@H]1CCN1c1nc(N2C[C@@H]3[C@@H](CC(=O)O)[C@@H]3C2)cc(C(F)F)c1C#N [Example 19, [(1R,5S,6R)-3-{5-cyano-4-(difluoromethyl)-6-[(2S)-2-methylazetidin-1-yl]pyridin-2-yl}-3-azabicyclo[3.1.0]hex-6-yl]acetic acid] | 7.2 nM | 
Cc1c(C(F)F)nc(N2C[C@@H](O)[C@@H]2C)nc1N1C[C@@H]2[C@@H](CC(=O)O)[C@@H]2C1 [Example 20, [(1R,5S,6R)-3-{6-(difluoromethyl)-2-[(2S,3R)-3-hydroxy-2-methylazetidin-1-yl]-5-methylpyrimidin-4-yl}-3-azabicyclo[3.1.0]hex-6-yl]acetic acid] | 33.4 nM | 
C[C@@H]1N(c2nc(N3C[C@@H]4[C@@H](CC(=O)O)[C@@H]4C3)c(Cl)c(C(F)F)c2C#N)C[C@@]1(C)O [Example 21, [(1R,5S,6R)-3-{3-chloro-5-cyano-4-(difluoromethyl)-6-[(2S,3R)-3-hydroxy-2,3-dimethylazetidin-1-yl]pyridin-2-yl}-3-azabicyclo[3.1.0]hex-6-yl]acetic acid] | 8.7 nM | 
C[C@H]1C[C@H](O)CN1c1nc(N2C[C@@H]3[C@@H](CC(=O)O)[C@@H]3C2)cc(C(F)(F)F)c1C#N [Example 23, [(1R,5S,6R)-3-{5-cyano-6-[(2S,4S)-4-hydroxy-2-methylpyrrolidin-1-yl]-4-(trifluoromethyl)pyridin-2-yl}-3-azabicyclo[3.1.0]hex-6-yl]acetic acid] | 11.6 nM | 
C[C@H]1[C@H](O)CN1c1cc(N2C[C@@H]3[C@@H](CC(=O)O)[C@@H]3C2)cc(C(F)(F)F)n1 [Example 27, [(1R,5S,6R)-3-{2-[(2S,3R)-3-hydroxy-2-methylazetidin-1-yl]-6-(trifluoromethyl)pyridin-4-yl}-3-azabicyclo[3.1.0]hex-6-yl]acetic acid] | 109 nM | 
COc1c(C(F)F)nc(N2C[C@@H](O)[C@@H]2C)nc1N1C[C@@H]2[C@@H](CC(=O)O)[C@@H]2C1 [Example 29, [(1R,5S,6R)-3-{6-(difluoromethyl)-2-[(2S,3R)-3-hydroxy-2-methylazetidin-1-yl]-5-methoxypyrimidin-4-yl}-3-azabicyclo[3.1.0]hex-6-yl]acetic acid] | 265 nM | 
C[C@H]1[C@H](O)CN1c1nc(N2C[C@@H]3[C@@H](CC(=O)O)[C@@H]3C2)nc(C(F)(F)F)n1 [Example 30, [(1R,5S,6R)-3-{4-[(2S,3R)-3-hydroxy-2-methylazetidin-1-yl]-6-(trifluoromethyl)-1,3,5-triazin-2-yl}-3-azabicyclo[3.1.0]hex-6-yl]acetic acid] | 509 nM | 
N#Cc1c(C(F)(F)F)cc(N2C[C@@H]3[C@@H](CC(=O)O)[C@@H]3C2)nc1C1CCC1 [Example 31, {(1R,5S,6s)-3-[5-cyano-6-cyclobutyl-4-(trifluoromethyl)pyridin-2-yl]-3-azabicyclo[3.1.0]hex-6-yl}acetic acid] | 30 nM | 

Second part, led by results:

IC50 [2] | SMILES | further results
131 nM | C[C@H]1[C@H](O)CN1c1nc(N2C[C@@H]3[C@@H](CC(=O)O)[C@@H]3C2)cc(C(C)(F)F)n1 [Example 17, [(1R,5S,6R)-3-{6-(1,1-difluoroethyl)-2-[(2S,3R)-3-hydroxy-2-methylazetidin-1-yl]pyrimidin-4-yl}-3-azabicyclo[3.1.0]hex-6-yl]acetic acid] | 
703 nM | C[C@@H]1N(c2nc(N3C[C@@H]4[C@@H](CC(=O)O)[C@@H]4C3)cc(C(F)(F)F)n2)C[C@@]1(C)O [Example 22, [(1R,5S,6R)-3-{2-[(2S,3R)-3-hydroxy-2,3-dimethylazetidin-1-yl]-6-(trifluoromethyl)pyrimidin-4-yl}-3-azabicyclo[3.1.0]hex-6-yl]acetic acid] | 
259 nM | Cc1c(C(F)F)nc(N2C[C@@](C)(O)[C@@H]2C)nc1N1C[C@@H]2[C@@H](CC(=O)O)[C@@H]2C1 [Example 25, [(1R,5S,6R)-3-{6-(difluoromethyl)-2-[(2S,3R)-3-hydroxy-2,3-dimethylazetidin-1-yl]-5-methylpyrimidin-4-yl}-3-azabicyclo[3.1.0]hex-6-yl]acetic acid] | 
63.6 nM | Cc1c(N2C[C@@H]3[C@@H](CC(=O)O)[C@@H]3C2)nc(N2C[C@@](C)(O)[C@@H]2C)nc1C(F)(F)F [Example 26, [(1R,5S,6R)-3-{2-[(2S,3R)-3-hydroxy-2,3-dimethylazetidin-1-yl]-5-methyl-6-(trifluoromethyl)pyrimidin-4-yl}-3-azabicyclo[3.1.0]hex-6-yl]acetic acid] | 
120 nM | C[C@H]1CCCN1c1nc(N2C[C@@H]3[C@@H](CC(=O)O)[C@@H]3C2)cc(C(F)(F)F)n1 [Example 28, [(1R,5S,6R)-3-{2-[(2S)-2-methylpyrrolidin-1-yl]-6-(trifluoromethyl)pyrimidin-4-yl}-3-azabicyclo[3.1.0]hex-6-yl]acetic acid] | 
1760 nM | C[C@H]1[C@H](O)CN1c1cc(N2C[C@@H]3[C@@H](CC(=O)O)[C@@H]3C2)nc(C(F)(F)F)n1 [Example 32, [(1R,5S,6R)-3-{6-[(2S,3R)-3-hydroxy-2-methylazetidin-1-yl]-2-(trifluoromethyl)pyrimidin-4-yl}-3-azabicyclo[3.1.0]hex-6-yl]acetic acid] | 
